The results in this text go back to patent US11591341B2 (ALIGOS THERAPEUTICS, INC., priority 2019, dated 2023).

Some results are limits rather than exact numbers.

The term EC50 denotes the concentration giving half of the maximal effect. High values mean weaker potency, low ones greater potency.

In this experiment the test system is HBV. As to the kind of experiment: HBV-DNA Antiviral Assay Using HepG2.117 Cells (intracellular HBV DNA by qPCR). Format: cell-based, hepatitis B virus (genotype D). Particulars: Hepatitis B virus, HepG2.117. The gist of the method:
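Endpoint: qPCR copy number of intracellular HBV DNA after 3-day compound exposure, with inhibition set relative to the 2% DMSO control. The cells were doxycycline-free HepG2.117 carrying a Tet-off genotype D genome, dosed at nine 4-fold dilutions. A duplicate plate gave ATP-based viability (CC50).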
In turn, `C[C@@H](NC(=O)c1c2n(c(=O)n1-c1ccc(OCC(F)(F)F)cc1)CCN(C(=O)c1ccc(Br)c(Cl)c1)C2)c1ccc(OCC(N)=O)cc1F` (stereo in doubt) [Example 319, 7-(4-bromo-3-chloro-benzoyl)-3-oxo-N-[rac-(1R)-1-[4-(2-amino-2-oxo-ethoxy)-2-fluoro-phenyl]ethyl]-2-[4-(2,2,2-trifluoroethoxy)phenyl]-6,8-dihydro-5H-imidazo[1,5-a]pyrazine-1-carboxamide] registered an EC50 of 0.5 to 5 µM.

In turn, `C[C@H](NC(=O)c1c2n(c(=O)n1-c1ccc(OCC(F)(F)F)cc1)CCN(C(=O)c1ccc(Br)c(Cl)c1)C2)c1ccc(OCC(N)=O)cc1F` (stereo in doubt) [Example 320, 7-(4-bromo-3-chloro-benzoyl)-3-oxo-N-[rac-(1S)-1-[4-(2-amino-2-oxo-ethoxy)-2-fluoro-phenyl]ethyl]-2-[4-(2,2,2-trifluoroethoxy)phenyl]-6,8-dihydro-5H-imidazo[1,5-a]pyrazine-1-carboxamide] yielded an EC50 of 0.1 to 0.5 µM.

Regarding `C[C@H](NC(=O)c1c2n(c(=O)n1-c1ccc(OCC(F)(F)F)cc1)CCN(C(=O)c1ccc(Br)c(Cl)c1)C2)c1ccc(OC(C)(C)C(N)=O)cc1F` (stereo in doubt) [Example 336, 7-(4-bromo-3-chloro-benzoyl)-3-oxo-N-[rac-(1S)-1-[4-(2-amino-1,1-dimethyl-2-oxo-ethoxy)-2-fluoro-phenyl]ethyl]-2-[4-(2,2,2-trifluoroethoxy)phenyl]-6,8-dihydro-5H-imidazo[1,5-a]pyrazine-1-carboxamide], the 50% effective concentration (EC50) was 0.1 to 0.5 µM.

Consider `C[C@@H](NC(=O)c1c2n(c(=O)n1-c1ccc(OCC(F)(F)F)cc1)CCN(C(=O)c1ccc(Br)c(Cl)c1)C2)c1ccc(OC(C)(C)C(N)=O)cc1F` (stereo in doubt) [Example 337, 7-(4-bromo-3-chloro-benzoyl)-3-oxo-N-[rac-(1R)-1-[4-(2-amino-1,1-dimethyl-2-oxo-ethoxy)-2-fluoro-phenyl]ethyl]-2-[4-(2,2,2-trifluoroethoxy)phenyl]-6,8-dihydro-5H-imidazo[1,5-a]pyrazine-1-carboxamide], for which the half-maximal effective concentration (EC50) is 0.1 to 0.5 µM.

The compound `C[C@H](NC(=O)c1c2n(c(=O)n1-c1ccc(OC3CC3)cc1)CCN(C(=O)c1ccc(Br)c(Cl)c1)C2)c1ccc(OC(C)(C)C(N)=O)cc1F` (stereo in doubt) [Example 338, 7-(4-bromo-3-chloro-benzoyl)-2-[4-(cyclopropoxy)phenyl]-3-oxo-N-[rac-(1S)-1-[4-(2-amino-1,1-dimethyl-2-oxo-ethoxy)-2-fluoro-phenyl]ethyl]-6,8-dihydro-5H-imidazo[1,5-a]pyrazine-1-carboxamide] returned an EC50 of 0.1 to 0.5 µM.

In the case of `C[C@@H](NC(=O)c1c2n(c(=O)n1-c1ccc(OC3CC3)cc1)CCN(C(=O)c1ccc(Br)c(Cl)c1)C2)c1ccc(OC(C)(C)C(N)=O)cc1F` (stereo in doubt) [Example 339, 7-(4-bromo-3-chloro-benzoyl)-2-[4-(cyclopropoxy)phenyl]-3-oxo-N-[rac-(1R)-1-[4-(2-amino-1,1-dimethyl-2-oxo-ethoxy)-2-fluoro-phenyl]ethyl]-6,8-dihydro-5H-imidazo[1,5-a]pyrazine-1-carboxamide], the concentration for a half-maximal effect (EC50) was in the range of 0.1 to 0.5 µM.

On to `C[C@@H](NC(=O)c1c2n(c(=O)n1-c1ccc(OC3CC3)cc1)CCN(C(=O)c1ccc(Br)c(Cl)c1)C2)c1ccc(OCC#N)cc1F` (stereo in doubt) [Example 342, 7-(4-bromo-3-chloro-benzoyl)-2-[4-(cyclopropxy)phenyl]-3-oxo-N-[rac-(1R)-1-[4-(cyanomethoxy)-2-fluoro-phenyl]ethyl]-6,8-dihdyro-5H-imidazo[1,5-a]pyrazine-1-carboxamide], for which the EC50 lay within 0.1 to 0.5 µM.

`C[C@H](NC(=O)c1c2n(c(=O)n1-c1ccc(OC3CC3)cc1)CCN(C(=O)c1ccc(Br)c(Cl)c1)C2)c1ccc(OCC#N)cc1F` (stereo in doubt) [Example 343, 7-(4-bromo-3-chloro-benzoyl)-2-[4-(cyclopropoxy)phenyl]-3-oxo-N-[rac-(1S)-1-[4-(cyanomethoxy)-2-fluoro-phenyl]ethyl]-6,8-dihydro-5H-imidazo[1,5-a]pyrazine-1-carboxamide] yielded a concentration for a half-maximal effect (EC50) of 0.1 to 0.5 µM.

`C[C@@H](NC(=O)c1c2n(c(=O)n1-c1ccc(OCC(F)(F)F)cc1)CCN(C(=O)c1ccc(Br)c(Cl)c1)C2)c1ccc(OCC#N)cc1F` (stereo in doubt) [Example 344, 7-(4-bromo-3-chloro-benzoyl)-3-oxo-N-[rac-(1R)-1-[4-(cyanomethoxy)-2-fluoro-phenyl]ethyl]-2-[4-(2,2,2-trifluoroethoxy)phenyl]-6,8-dihydro-5H-imidazo[1,5-a]pyrazine-1-carboxamide] showed an EC50 of 0.5 to 5 µM.

The compound `C[C@H](NC(=O)c1c2n(c(=O)n1-c1ccc(OCC(F)(F)F)cc1)CCN(C(=O)c1ccc(Br)c(Cl)c1)C2)c1ccc(OCC#N)cc1F` (stereo in doubt) [Example 345, 7-(4-bromo-3-chloro-benzoyl)-3-oxo-N-[rac-(1S)-1-[4-(cyanomethoxy)-2-fluoro-phenyl]ethyl]-2-[4-(2,2,2-trifluoroethoxy)phenyl]-6,8-dihydro-5H-imidazo[1,5-a]pyrazine-1-carboxamide] came in with an EC50 of 0.1 to 0.5 µM.

With `C[C@@H](NC(=O)c1c2n(c(=O)n1-c1ccc(OC3CC3)cc1)CCN(C(=O)c1ccc(Br)c(Cl)c1)C2)c1ccc(OC2COC2)cc1F` (stereo in doubt) [Example 346, 7-(4-bromo-3-chloro-benzoyl)-2-[4-(cyclopropoxy)phenyl]-3-oxo-N-[rac-(1R)-1-[2-fluoro-4-(oxetan-3-yloxy)phenyl]ethyl]-6,8-dihydro-5H-imidazo[1,5-a]pyrazine-1-carboxamide], the EC50 lay within 0.1 to 0.5 µM.

For `C[C@H](NC(=O)c1c2n(c(=O)n1-c1ccc(OC3CC3)cc1)CCN(C(=O)c1ccc(Br)c(Cl)c1)C2)c1ccc(OC2COC2)cc1F` (stereo in doubt) [Example 347, 7-(4-bromo-3-chloro-benzoyl)-2-[4-(cyclopropoxy)phenyl]-3-oxo-N-[rac-(1S)-1-[2-fluoro-4-(oxetan-3-yloxy)phenyl]ethyl]-6,8-dihydro-5H-imidazo[1,5-a]pyrazine-1-carboxamide], the concentration giving a half-maximal response (EC50) was 0.1 to 0.5 µM.

`C[C@H](Oc1ccc(CNC(=O)c2c3n(c(=O)n2-c2ccc(OCC(F)(F)F)cc2)CCN(C(=O)c2ccc(Br)c(Cl)c2)C3)c(F)c1)C(N)=O` (stereo in doubt) [Example 353, 7-(4-bromo-3-chloro-benzoyl)-N-[[2-fluoro-4-[rac-(1S)-2-amino-1-methyl-2-oxo-ethoxy]phenyl]methyl]-3-oxo-2-[4-(2,2,2-trifluoroethoxy)phenyl]-6,8-dihydro-5H-imidazo[1,5-a]pyrazine-1-carboxamide]: the EC50 is 0.5 to 5 µM.

The compound `C[C@@H](Oc1ccc(CNC(=O)c2c3n(c(=O)n2-c2ccc(OCC(F)(F)F)cc2)CCN(C(=O)c2ccc(Br)c(Cl)c2)C3)c(F)c1)C(N)=O` (stereo in doubt) [Example 354, 7-(4-bromo-3-chloro-benozyl)-N-[[2-fluoro-4-[rac-(1R)-2-amino-1-methyl-2-oxo-ethoxy]phenyl]methyl]-3-oxo-2-[4-(2,2,2-trifluoroethoxy)phenyl]-6,8-dihydro-5H-imidazo[1,5-a]pyrazine-1-carboxamide] had an EC50 of 0.5 to 5 µM.

For the compound `C[C@@H](Oc1ccc([C@@H](C)NC(=O)c2c3n(c(=O)n2-c2ccc(OC4CC4)cc2)CCN(C(=O)c2ccc(Br)c(Cl)c2)C3)c(F)c1)C(N)=O` (stereo in doubt) [Example 355, 7-(4-bromo-3-chloro-benzoyl)-2-[4-(cyclopropoxy)phenyl]-3-oxo-N-[rac-(1R)-1-[2-fluoro-4-[rac-(1R)-2-amino-1-methyl-2-oxo-ethoxy]phenyl]ethyl]-6,8-dihydro-5H-imidazo[1,5-a]pyrazine-1-carboxamide], the EC50 lay in the range of 0.5 to 5 µM.

`C[C@H](Oc1ccc([C@@H](C)NC(=O)c2c3n(c(=O)n2-c2ccc(OC4CC4)cc2)CCN(C(=O)c2ccc(Br)c(Cl)c2)C3)c(F)c1)C(N)=O` (stereo in doubt) [Example 356, 7-(4-bromo-3-chloro-benzoyl)-2-[4-(cyclopropoxy)phenyl]-3-oxo-N-[rac-(1R)-1-[2-fluoro-4-[rac-(1S)-2-amino-1-methyl-2-oxo-ethoxy]phenyl]ethyl]-6,8-dihydro-5H-imidazo[1,5-a]pyrazine-1-carboxamide] yielded an EC50 of 0.1 to 0.5 µM.

`C[C@H](NC(=O)c1c2n(c(=O)n1-c1ccc(OC3CC3)cc1)CCN(C(=O)c1ccc(Br)c(Cl)c1)C2)c1ccc(O[C@H](C)C(N)=O)cc1F` (stereo in doubt) [Example 357, 7-(4-bromo-3-chloro-benzoyl)-2-[4-(cyclopropoxy)phenyl]-3-oxo-N-[rac-(1S)-1-[2-fluoro-4-[rac-(1R)-2-amino-1-methyl-2-oxo-ethoxy]phenyl]ethyl]-6,8-dihydro-5H-imidazo[1,5-a]pyrazine-1-carboxamide]: the EC50 was in the range of 0.1 to 0.5 µM.

Regarding `C[C@H](Oc1ccc([C@H](C)NC(=O)c2c3n(c(=O)n2-c2ccc(OC4CC4)cc2)CCN(C(=O)c2ccc(Br)c(Cl)c2)C3)c(F)c1)C(N)=O` (stereo in doubt) [Example 358, 7-(4-bromo-3-chloro-benzoyl)-2-[4-(cyclopropoxy)phenyl]-3-oxo-N-[rac-(1S)-1-[2-fluoro-4-[rac-(1S)-2-amino-1-methyl-2-oxo-ethoxy]phenyl]ethyl]-6,8-dihydro-5H-imidazo[1,5-a]pyrazine-1-carboxamide], the EC50 is under 0.1 µM.

For `C[C@@H](Oc1ccc([C@@H](C)NC(=O)c2c3n(c(=O)n2-c2ccc(OCC(F)(F)F)cc2)CCN(C(=O)c2ccc(Br)c(Cl)c2)C3)c(F)c1)C(N)=O` (stereo in doubt) [Example 359, 7-(4-bromo-3-chloro-benzoyl)-3-oxo-N-[rac-(1R)-1-[2-fluoro-4-[rac-(1R)-2-amino-1-methyl-2-oxo-ethoxy]phenyl]ethyl]-2-[4-(2,2,2-trifluoroethoxy)phenyl]-6,8-dihydro-5H-imidazo[1,5-a]pyrazine-1-carboxamide], the EC50 fell in the range of 0.5 to 5 µM.
